Source: paper PMC8948292, “Combining PEGylated mito-atovaquone with MCT and Krebs cycle redox inhibitors as a potential strategy to abrogate tumor cell proliferation” (Scientific Reports, 2022)

Tests used:
MiaPaCa-2 cells [1] = assay: Cell proliferation (cell confluence), IncuCyte Live-Cell Analysis System; format: cell-based, human; conditions: for Cell confluence (% of control): MiaPaCa-2 cells, control ~90% confluence
Summary of the method: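 MiaPaCa-2 cells in DMEM with 10% FBS, plated at 1,000 cells/well in triplicate and adhered overnight, then treated with Mito-PEG-ATO analogs. Confluence imaged label-free over several days, increase in percent confluence serving as proliferation surrogate.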

[2] = tested on: mitochondrial respiration (OCR) in intact MiaPaCa-2 cells; assay: Intact cell mitochondrial respiration (basal OCR), Seahorse XF-96; format: cell-based, human
Summary of the method: (§1)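 MiaPaCa-2 cells were treated 24 h with Mito-PEG-ATO analogs, and OCR was read on a Seahorse XF-96; basal respiration was taken in intact cells. For complex I, permeabilized cells received 10 mM pyruvate, 1.5 mM malate and 10 mM malonate; for complex III, 0.5 mM duroquinol, 1 µM rotenone and 10 mM malonate, both in mannitol/sucrose buffer. IC50 values were derived from the OCR data.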

[3] = molecular target: mitochondrial complex III (MiaPaCa-2 cells) (Homo sapiens, UniProt P00156); assay: Complex III-dependent oxygen consumption in permeabilized cells, Seahorse XF-96; format: cell-based
Summary of the method: as §1

[4] = tested on: mitochondrial respiration (OCR) in intact U87MG cells; assay: Intact cell mitochondrial respiration (basal OCR), Seahorse XF-96; format: cell-based, human; conditions: 24 h treatment
Description: (§2) Mitochondrial oxygen consumption was measured using the Seahorse XF-96 Extracellular Flux Analyzer (Agilent, North Billerica, MA)[3],[33],[67],[68]. To determine the intact cell mitochondrial function of MiaPaCa-2 cells in response to Mito-PEG-ATO analogs, we used the bioenergetic function assay previously described[2],[3]. […] From these measurements, indices of mitochondrial function were determined as previously described[2],[3]. For mitochondrial complex activities assays, after cells were treated with Mito-PEG-ATO analogs for 24 h, the OCR-based assessment of mitochondrial complex activities was carried out on acutely permeabilized cells in the presence of different mitochondrial substrates, i.e., pyruvate/malate for complex I and duroquinol for complex III[3],[32],[34],[69]. Rotenone, malonate, and antimycin A (Sigma-Aldrich, St. Louis, MO) were used as specific inhibitors of mitochondrial complexes I, II, and III, respectively. […] The IC50 values were determined as previously reported.
Figure S8. […] (b) After eight baseline OCR measurements, the response to mitochondrial modulators (oligomycin, dinitrophenol, and rotenone/antimycin A as described in the Methods section) were recorded. The last three stable baseline OCR reading before oligomycin injection was plotted against the concentration of Mito-PEG4-ATO (red open box). […]

[5] = tested on: mitochondrial complex I (U87MG cells); assay: Complex I-dependent oxygen consumption, Seahorse XF-96; format: cell-based, human
Description: as §2, with “respectively. Briefly, cells that were intact after treatments were immediately permeabilized using the Seahorse XF Plasma Membrane Permeabilizer (Agilent). The mitochondrial complex I-induced OCR was assayed in mannitol and sucrose buffer[69] containing 10 mM pyruvate and 1.5 mM malate (substrates for complex I) and 10 mM malonate (which inhibits complex II activities).” for “respectively.”, “reported. […]” for “reported.”

[6] = molecular target: T1, mitochondrial complex III (U87MG cells) (Homo sapiens, UniProt P00156); assay: Complex III-dependent oxygen consumption, Seahorse XF-96; format: cell-based
T1 construct: endogenous in cells; host or cells: U87MG (ATCC HTB-14)
Description: as §2, with “respectively. Briefly, cells that were intact after treatments were immediately permeabilized using the Seahorse XF Plasma Membrane Permeabilizer (Agilent). The mitochondrial complex I-induced OCR was assayed in mannitol and sucrose buffer[69] containing 10 mM pyruvate and 1.5 mM malate (substrates for complex I) and 10 mM malonate (which inhibits complex II activities).” for “respectively.”, “reported. […]” for “reported.”

MiaPaCa-2 cells [7] = assay: Basal extracellular acidification rate (ECAR) in intact cells; format: cell-based, human; conditions: 24 h treatment
Description: as §2, with “respectively. Briefly, cells that were intact after treatments were immediately permeabilized using the Seahorse XF Plasma Membrane Permeabilizer (Agilent). The mitochondrial complex I-induced OCR was assayed in mannitol and sucrose buffer[69] containing 10 mM pyruvate and 1.5 mM malate (substrates for complex I) and 10 mM malonate (which inhibits complex II activities).” for “respectively.”, “reported. […]” for “reported.”

U87MG cells = assay: as above; format: cell-based, human

Sequence of mitochondrial complex III (MiaPaCa-2 cells) (P00156 whole entry): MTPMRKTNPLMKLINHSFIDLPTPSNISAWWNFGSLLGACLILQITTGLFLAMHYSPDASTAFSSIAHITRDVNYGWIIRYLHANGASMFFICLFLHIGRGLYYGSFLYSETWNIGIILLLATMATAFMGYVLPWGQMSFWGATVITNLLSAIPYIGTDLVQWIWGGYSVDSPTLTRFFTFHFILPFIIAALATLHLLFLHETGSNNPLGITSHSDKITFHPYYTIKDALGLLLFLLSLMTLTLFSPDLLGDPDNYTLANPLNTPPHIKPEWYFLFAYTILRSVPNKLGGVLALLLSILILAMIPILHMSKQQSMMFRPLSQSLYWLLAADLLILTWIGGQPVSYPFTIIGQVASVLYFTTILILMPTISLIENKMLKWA
Sequence of mitochondrial complex III (MiaPaCa-2 cells) (P47985 whole entry partner): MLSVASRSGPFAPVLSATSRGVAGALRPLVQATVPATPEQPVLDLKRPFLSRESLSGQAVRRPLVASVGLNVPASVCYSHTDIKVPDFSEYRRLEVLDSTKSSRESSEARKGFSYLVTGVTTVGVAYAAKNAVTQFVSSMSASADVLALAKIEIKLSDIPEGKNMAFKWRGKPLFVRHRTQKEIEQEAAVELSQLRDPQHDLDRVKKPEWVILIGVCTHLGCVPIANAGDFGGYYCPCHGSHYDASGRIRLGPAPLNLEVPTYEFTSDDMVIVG
T1 sequence (P00156 whole entry): as the sequence (P00156 whole entry) above
T1 sequence (P47985 whole entry partner): as the sequence (P47985 whole entry partner) above

## O=C1C(OCCOCCOCCOCC[P+](c2ccccc2)(c2ccccc2)c2ccccc2)=C([C@H]2CC[C@H](c3ccc(Cl)cc3)CC2)C(=O)c2ccccc21.[Br-] [Mito-PEG4-ATO, [2-(2-(2-(2-((3-(trans-4-(4-chlorophenyl)cyclohexyl)-1,4-dioxo-1,4-dihydronaphthalen-2-yl)oxy)ethoxy)ethoxy)ethoxy)ethyl]triphenylphosphonium bromide]
MiaPaCa-2 cells [1]; Homo sapiens, MIA PaCa-2, read-out: IC50, inhibition of cell proliferation
  IC50: 0.14 µM
MiaPaCa-2 cells [1]; 0.005 µM
  Cell confluence (% of control): 100.53 % of control
MiaPaCa-2 cells [1]; 0.02 µM
  Cell confluence (% of control): 101.08 % of control
MiaPaCa-2 cells [1]; 0.05 µM
  Cell confluence (% of control): 100.72 % of control
MiaPaCa-2 cells [1]; 0.08 µM
  Cell confluence (% of control): 98.94 % of control
MiaPaCa-2 cells [1]; 0.16 µM
  Cell confluence (% of control): 29.68 % of control
MiaPaCa-2 cells [1]; 0.32 µM
  Cell confluence (% of control): 3.32 % of control
MiaPaCa-2 cells [1]; 0.48 µM
  Cell confluence (% of control): 3.11 % of control
MiaPaCa-2 cells [1]; 0.8 µM
  Cell confluence (% of control): 3.18 % of control
MiaPaCa-2 cells [1]; 1.6 µM
  Cell confluence (% of control): 2.81 % of control
MiaPaCa-2 cells [1]; 4.8 µM
  Cell confluence (% of control): 2.52 % of control
[2]; 0.003 µM, 24 h treatment, intact MiaPaCa-2 cells, baseline OCR, mean, n=4
  OCR (pmol/min/µg protein): 20.44 pmol/min/µg protein
[2]; 0.01 µM, 24 h treatment, intact MiaPaCa-2 cells, mean, n=4
  OCR (basal, intact cell mitochondrial respiration): 17.79 pmol/min/µg protein
[2]; 0.03 µM, 24 h treatment, intact MiaPaCa-2 cells, mean, n=4
  OCR (basal, intact cell mitochondrial respiration): 17.72 pmol/min/µg protein
[2]; 0.05 µM, 24 h treatment, intact MiaPaCa-2 cells, mean, n=4
  OCR (basal, intact cell mitochondrial respiration): 16.82 pmol/min/µg protein
[2]; 0.1 µM, 24 h treatment, intact MiaPaCa-2 cells, mean, n=4
  OCR (basal, intact cell mitochondrial respiration): 13.38 pmol/min/µg protein
[2]; 0.2 µM, 24 h treatment, intact MiaPaCa-2 cells, mean, n=4
  OCR (basal, intact cell mitochondrial respiration): 9.15 pmol/min/µg protein
[2]; 0.3 µM, 24 h treatment, intact MiaPaCa-2 cells, mean, n=4
  OCR (basal, intact cell mitochondrial respiration): 6.10 pmol/min/µg protein
[2]; 0.5 µM, 24 h treatment, intact MiaPaCa-2 cells, mean, n=4
  OCR (basal, intact cell mitochondrial respiration): 3.29 pmol/min/µg protein
[2]; 1 µM, 24 h treatment, intact MiaPaCa-2 cells, mean, n=4
  OCR (basal, intact cell mitochondrial respiration): 1.41 pmol/min/µg protein
[2]; 3 µM, 24 h treatment, intact MiaPaCa-2 cells, mean, n=4
  OCR (basal, intact cell mitochondrial respiration): 0.43 pmol/min/µg protein
[2]; 10 µM, 24 h treatment, intact MiaPaCa-2 cells, mean, n=4
  OCR (basal, intact cell mitochondrial respiration): 0.42 pmol/min/µg protein
[2]; Homo sapiens, MIA PaCa-2, 24 h, read-out: IC50, inhibition of basal OCR in intact cells
  IC50: 0.26 µM
[3]; 0.02 µM
  Complex III activity (OCR, % of control): 98.8 % of control
[3]; 0.05 µM
  Complex III activity (OCR, % of control): 96.0 % of control
[3]; 0.08 µM
  Complex III activity (OCR, % of control): 99.9 % of control
[3]; 0.16 µM
  Complex III activity (OCR, % of control): 96.5 % of control
[3]; 0.32 µM
  Complex III activity (OCR, % of control): 90.1 % of control
[3]; 0.5 µM
  Complex III activity (OCR, % of control): 92.4 % of control
[3]; 0.8 µM
  Complex III activity (OCR, % of control): 76.5 % of control
[3]; 1.6 µM
  Complex III activity (OCR, % of control): 51.9 % of control
[3]; 5 µM
  Complex III activity (OCR, % of control): 24.8 % of control
[3]; MiaPaCa-2 cells, 24 h treatment, antimycin A-inhibitable OCR, read-out: IC50, complex III-induced oxygen consumption (Complex III activity)
  IC50: 1.7 µM
[4]
  OCR in intact cells: suppressed
[5]
  Complex I-induced oxygen consumption: inhibited
[6]
  Complex III-induced oxygen consumption: inhibited
MiaPaCa-2 cells [7]
  ECAR: stimulated ECAR
U87MG cells
  ECAR: stimulated ECAR
